Measurements published in patent US20230202997A1, “CHROMANOL, QUINONE OR HYDROQUINONE COMPOUNDS FOR TREATMENT OF SEPSIS” (Sulfateq B.V., priority 2020, published 2023).

How the values were obtained:
[1] = system: CLP-induced kidney dysfunction; assay: CLP sepsis model, serum urea and NGAL as kidney biomarkers; assay type: in vivo; conditions: CLP mice; SUL-138 5 mg/kg s.c. 2 h before and 8 h after surgery; 24 hours
Procedure: To induce sepsis, the standard cecal ligation and puncture (CLP) model was used. Animals were anesthetized by subcutaneous injection of xylazine/ketamine (100/10 mg/kg), followed by administration of buprenorphine (0.1 mg/kg) as analgesic. After confirmation of anesthesia by lack of response to paw pinch and eye reflex, the abdomen was shaved, cleaned, and de-germed using a povidone-iodine solution before a 1-cm midline incision was made. The cecum was ligated with a 6-0 suture at half the distance between distal pole and the base of the cecum and punctured once with a 21-Gauge needle (‘through-and-through’ from mesenteric toward anti-mesenteric direction) which is an accepted model for ‘mid-grade’ sepsis. A small amount of stool (2-3 mm) was then extruded to ensure wound patency. The cecum was repositioned, thereby taking care not to spill fecal material on the wound edges, followed by closure of the abdomen by running sutures to the abdominal musculature and short interrupted sutures to the skin. Next, 1 ml of saline (warmed, 0.9% NaCl s.c.) was administered to compensate for the expected relative volume depletion due to the onset of sepsis. […]
Furthermore, the amount of NGAL and urea were measured in serum.

HUVEC [2] = assay: LPS-challenged HUVEC respiration (uncoupled state, CCCP); assay type: cell-based, Human; conditions: 10 ug/ml LPS, SUL-138 added one hour prior to LPS
Procedure: (§1) Human Umbilical Vein Endothelial cells (HUVEC) were obtained from the RuG/UMCG Endothelial Cell Facility. Primary isolates of umbilical cords were mixed and subsequently cultured on HUVEC culture medium, consisted of RPMI 1640 (Lonza, art.nr. BE12-115F) supplemented with 20% heat-inactivated fetal calf serum (ThermoFisher Scientific, art.nr. 10082147), 2 mM 1-glutamine (Life Technologies art.nr. 25030), 5 U/ml heparin (Leo Pharmaceutical Products), 1% Penicillin/Streptomycin (Sigma-Aldrich art.nr. P4333), and 50 μg/ml EC growth factor supplement from (Sigma-Aldrich, art.nr. E2759).
(§2) Primary HUVECs were cultured in 75-cm2 tissue culture flasks (Corning, art.nr. 430720U) at 37° C. under 5% CO2/95% air. HUVECs were used for experiments up to passage 8. Experiments were performed in 6-well (Corning art.nr. 3506) or 96-well culture plates (Corning, art.nr. 3596), at 80% confluency. Cells were stimulated with LPS E. coli 0111:B4 (Sigma-Aldrich, art.nr. L2630) in different concentrations. Cells were detached with trypsin (Sigma-Aldrich, art.nr. 25300054). All compounds were dissolved in Hanks Balanced Salt Solution (Lonza, art.nr. 10-527F).
(§3) HUVECs were pre-incubated with SUL-138 in an amount of 10 microgram/ml, which was added one hour prior to LPS-stimulation. Such pre-incubation is the standard in in vitro models.

HUVEC [3] = assay: LPS-induced mitochondrial oxidative stress in HUVEC (MitoSOX); assay type: cell-based, Human; conditions: SUL-138 added one hour prior to LPS
Procedure: as §1
as §2, with “10-527F). […]” for “10-527F).”
Cells and mitochondria were incubated and measured according to manufacturer's protocol in the Synergy H4 micro plate reader (Bio-Tek) at an excitation/emission rate of 548/574 nm.

HUVEC [4] = assay: HUVEC cell survival after 48 hours LPS (Cyquant); assay type: cell-based, Human; conditions: 48 hours with LPS, SUL-138 pre-incubation
Procedure: as §1, §2, §3

IL-6 mRNA expression = assay: Inhibition of LPS-induced IL-6 mRNA expression in HUVEC; assay type: cell-based, Human; conditions: 10 μM for 30 min, then LPS 24 hours
Procedure: (§4) Human Umbilical Cord Endothelial Cells (HUVEC, Lonza CC-2519) were maintained on 1% gelatin-coated culture flasks in RPMI1640 medium containing 20% fetal bovine serum, 2 mM Glutamine (Sigma-Aldrich), 1% Penicillin-Streptomycin solution (Sigma-Aldrich) and 50 μg/ml Bovine Pituitary Extract (Invitrogen). HUVEC were passaged by trypsinization when the cultures reach a confluency of 70%. For all experiments, HUVEC were seeded at 0.6·10^5 cells/cm^2 and allowed to adhere for 24 hours.
(§5) HUVEC and NRK52E cells were pre-incubated with SUL compounds (10 μM) for 30 min and subsequently exposed to LPS for 24 hours under standard culture conditions. Cells were lysed in triZOL reagens (Invitrogen) and total RNA isolated according to manufacturers' instruction. 1 μg total RNA per sample was reverse transcribed using the FirstAid Reverse Transcription Kit (ThermoFisher). Copy-DNA equivalents of 5 ng total RNA were amplified on a ViiA7 Real-time PCR system (ThermoFisher, Waltham, Mass.) using iTaq Universal SYBR Green Supermix (Bio-Rad, Hercules, Calif.) and primers specific for tumor necrosis factor alpha, interleukin 1 beta, interleukin-6 and beta actin as loading control. Amplification was performed for 40 cycles of 95° C. for 30 s, 60° C. for 1 min. Relative mRNA expression was calculated as 2^−(Cq^gene^−Cq^reference^) and normalized to unstimulated control cells (100% inhibition) and vehicle-treated and LPS exposed cells (0% inhibition). The following primers were used: […]

TNFα mRNA expression [5] = assay: Inhibition of LPS-induced TNFα mRNA expression in NRK52E; assay type: cell-based, Rat; conditions: 10 μM for 30 min, then LPS 24 hours
Procedure: Rat kidney epithelial cells (ATCC #CRL-1571) were maintained in DMEM medium containing 10% fetal bovine serum, and 1% Penicillin-Streptomycin solution (Sigma-Aldrich). NRK52E cells were passaged by trypsinization when the cultures reached a confluency of 70%. For all experiments, NRK52E cells were seeded at 0.6·10^5 cells/cm^2 and allowed to adhere for 24 hours.
as §5

TNFα mRNA expression [6] = assay: Endothelial inflammatory activation after endotoxin, TNFα mRNA (Example 5); assay type: cell-based, Human; conditions: HUVEC; 10 μM for 30 min
Procedure: as §4
HUVEC cells were lysed in triZOL reagens (Invitrogen) and total RNA isolated according to manufacturers' instruction. 1 μg total RNA per sample was reverse transcribed using the FirstAid Reverse Transcription Kit (ThermoFisher). Copy-DNA equivalents of 5 ng total RNA were amplified on a ViiA7 Real-time PCR system (ThermoFisher, Waltham, Mass.) using iTaq Universal SYBR Green Supermix (Bio-Rad, Hercules, Calif.) and primers specific for tumor necrosis factor alpha (TNFα; sense 5′-[…]-3′, antisense 5′-[…]-3′), interleukin 1 beta (IL-1β; sense 5′-[…]-3′, antisense 5′-[…]-3′), interleukin-6 (IL-6; sense 5′-[…]-3′, antisense 5′-[…]-3′) and beta actin (ACTB; sense 5′-[…]-3′, antisense 5′-[…]-3′) as loading control. Amplification was performed for 40 cycles of 95° C. for 30 s, 60° C. for 1 min. Relative mRNA expression was calculated according to the δδCt-method.

Cc1c(C)c2c(c(C)c1O)CC[C@@](C)(C(=O)N1CCN(CCO)CC1)O2 [SUL-138, (S)-(6-hydroxy-2,5,7,8-tetramethylchroman-2-yl)(4-(2-hydroxyethyl)piperazin-1-yl)methanone]
Serum NGAL level [1]: not different from Sham operated animals | Serum urea level [1]: not different from Sham operated animals | uncoupled respiration (CCCP) (HUVEC [2]): almost restores the uncoupled respiration | LPS induced mitochondrial oxidative stress (MitoSOX) (HUVEC [3]): reduces LPS induced mitochondrial oxidative stress | cell survival (Cyquant) (HUVEC [4]): restores cell survival after 48 hours | inhibition of LPS-induced mRNA expression of IL-6 (IL-6 mRNA expression): 68.3 ± 6.7 % | inhibition of LPS-induced mRNA expression of TNFα (TNFα mRNA expression [5]): 52.6 ± 11.6 % | LPS-induced mRNA expression of TNFα (TNFα mRNA expression [6]): precludes the induction of mRNA expression of the pro-inflammatory cytokine TNFα
